Results from patent US20100196932A1, “Yeast Reporter System” (THE BOARD OF TRUSTEES OF THE UNIVERSITY OF ILLINOIS, priority 2006, published 2010).

Tests used:
AβMRF [1] = format: cell-based, S. cerevisiae
Aβm1MRF = format: cell-based, S. cerevisiae
Aβm2MRF = format: cell-based, S. cerevisiae
AβMRF [2] = format: cell-based, S. cerevisiae; remark: listed apart in the source
Hsp104 = Hsp104 (Saccharomyces cerevisiae, UniProt P31539); settings: cited from earlier work
[3] = molecular target: the molecule itself; assay: SDS electrophoresis (1% SDS, room temperature) and immunoblot of yeast lysates
Hsp104 (yeast chaperone) = Hsp104 (yeast chaperone) (yeast S. cerevisiae, UniProt P31539 1-908); assay: co-immunoprecipitation from yeast lysate with anti-HA agarose beads, immunoblot with anti-Hsp104
Hsp104 (yeast chaperone), sequence (P31539 whole entry): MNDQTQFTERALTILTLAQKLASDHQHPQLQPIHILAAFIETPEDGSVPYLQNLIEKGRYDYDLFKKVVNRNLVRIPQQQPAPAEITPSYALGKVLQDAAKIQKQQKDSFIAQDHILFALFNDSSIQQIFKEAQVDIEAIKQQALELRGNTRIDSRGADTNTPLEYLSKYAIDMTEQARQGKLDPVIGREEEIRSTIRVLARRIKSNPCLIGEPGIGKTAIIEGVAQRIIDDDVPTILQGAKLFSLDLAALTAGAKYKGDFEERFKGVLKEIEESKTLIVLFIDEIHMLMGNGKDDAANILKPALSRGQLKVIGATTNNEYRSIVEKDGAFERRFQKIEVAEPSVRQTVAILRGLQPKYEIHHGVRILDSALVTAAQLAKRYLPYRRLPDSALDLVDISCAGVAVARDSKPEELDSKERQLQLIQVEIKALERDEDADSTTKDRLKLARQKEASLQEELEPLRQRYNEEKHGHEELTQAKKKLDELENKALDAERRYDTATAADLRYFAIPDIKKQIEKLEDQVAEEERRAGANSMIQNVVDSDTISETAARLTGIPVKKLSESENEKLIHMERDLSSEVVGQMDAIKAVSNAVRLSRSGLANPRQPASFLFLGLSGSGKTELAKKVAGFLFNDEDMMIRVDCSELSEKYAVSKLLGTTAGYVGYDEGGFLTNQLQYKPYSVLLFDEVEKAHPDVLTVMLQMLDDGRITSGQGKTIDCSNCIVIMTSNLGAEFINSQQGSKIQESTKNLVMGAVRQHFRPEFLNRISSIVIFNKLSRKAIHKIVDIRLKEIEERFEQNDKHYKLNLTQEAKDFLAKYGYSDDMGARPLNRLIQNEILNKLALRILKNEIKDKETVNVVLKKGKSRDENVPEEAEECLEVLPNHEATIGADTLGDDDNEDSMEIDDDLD
Description: FIG. 7. […] Co-precipitated proteins were eluted and analyzed by immunoblotting with anti-RF and anti-Hsp104 antibodies.
Following incubation, the beads were washed three times with 0.5 ml of phosphate buffered saline containing 0.05% Tween 20 to remove the non-specifically bound proteins.

[4] = molecular target: the molecule itself; assay: self-oligomerization; SDS electrophoresis and immunoblot of yeast lysates

Hsp104, sequence (P31539 whole entry): as above

Molecule: guanidine hydrochloride
- amount of AβMRF oligomers (AβMRF [1]): dramatically increased
- monomeric pool of AβMRF (AβMRF [1]): depleting the monomeric pool
- amount of Aβm1MRF oligomers (Aβm1MRF): dramatically increased
- monomeric pool of Aβm1MRF (Aβm1MRF): depleting the monomeric pool
- effect on oligomers/monomers of control Aβm2MRF protein (Aβm2MRF): No such effect was detected
- oligomerization of AβMRF in the absence of HSP104 (AβMRF [2]): stimulated oligomerization of AβMRF
- ATPase activity of Hsp104 (Hsp104): inhibited by millimolar concentrations

B1: MRF (HA-tagged Sup35p without the 123 N-terminal amino acids, plasmid p1366) (other, yeast S. cerevisiae, UniProt P05453 124-253, looked up, not shown: small tags and cut ends)
chain: MSLNDFQKQQKQAAPKPKKTLKLVSSSGIKLANATKKVGTKPAESDKKEEEKSAETKEPTKEPTKVEEPVKKEEKPVQTEEKTEEKSELPKVEDLKISESTHNTNNANVTSADALIKEQEEEVDDEVVNDMFGGKDHVSLIFMGHVDAGKSTMGGNLLYLTGSVDKRTIEKYEREAKDAGRQGWYLSWVMDTNKEERNDGKTIEVGKAYFETEKRRYTILDAPGHKMYVSEMIGGASQADVGVLVISARKGEYETGFERGGQTREHALLAKTQGVNKMVVVVNKMDDPTVNWSKERYDQCVSNVSNFLRAIGYNIKTDVVFMPVSGYSGANLKDHVDPKECPWYTGPTLLEYLDTMNHVDRHINAPFMLPIAAKMKDLGTIVEGKIESGHIKKGQSTLLMPNKTAVEIQNIYNETENEVDMAMCGEQVKLRIKGVEEEDISPGFVLTSPKNPIKSVTKFVAQIAIVELKSIIAAGFSCVMHVHTAIEEVHIVKLLHKLEKGTNRKSKKPPAFAKKGMKVIAVLETEAPVCVETYQDYPQLGRFTLRDQGTTIAIGKIVKIAE
notes: domain: M;domain: RF; also called HA-tagged MRF; Sup35p without the N-terminal prion domain
- binding result [3]: no binding
- binding result (Hsp104 (yeast chaperone)): no binding

B2: Aβm1MRF (Aβ42 F19,20T MRF, plasmid p1397) (other, yeast S. cerevisiae, not shown: small tags and cut ends)
chain: MDAEFRHDSGYEVHHQKLVTTAEDVGSNKGAIIGLMVGGVVIAMSLNDFQKQQKQAAPKPKKTLKLVSSSGIKLANATKKVGTKPAESDKKEEEKSAETKEPTKEPTKVEEPVKKEEKPVQTEEKTEEKSELPKVEDLKISESTHNTNNANVTSADALIKEQEEEVDDEVVNDMFGGKDHVSLIFMGHVDAGKSTMGGNLLYLTGSVDKRTIEKYEREAKDAGRQGWYLSWVMDTNKEERNDGKTIEVGKAYFETEKRRYTILDAPGHKMYVSEMIGGASQADVGVLVISARKGEYETGFERGGQTREHALLAKTQGVNKMVVVVNKMDDPTVNWSKERYDQCVSNVSNFLRAIGYNIKTDVVFMPVSGYSGANLKDHVDPKECPWYTGPTLLEYLDTMNHVDRHINAPFMLPIAAKMKDLGTIVEGKIESGHIKKGQSTLLMPNKTAVEIQNIYNETENEVDMAMCGEQVKLRIKGVEEEDISPGFVLTSPKNPIKSVTKFVAQIAIVELKSIIAAGFSCVMHVHTAIEEVHIVKLLHKLEKGTNRKSKKPPAFAKKGMKVIAVLETEAPVCVETYQDYPQLGRFTLRDQGTTIAIGKIVKIAE
notes: domain: M;domain: RF; also called Aβ^F19,20TMRF
- binding result [4]: binds
